# Test results: patent US20050026951A1, “Methods of therapeutic treatment using retinoids with reduced drug interaction” (Allergan, Inc., priority 2003, published 2005)
# Columns and labels:
# [1] = oral; cited from earlier work
# [2] = Food effect on pharmacokinetics of tazarotenic acid after 6.3 mg oral tazarotene (high-fat breakfast vs 8-10 hour fast); type: in vivo, human; settings: fed (high-fat meal) vs fasted
# Description: For the purposes of this application, the bioavailability of a drug may be based on the human pharmokinetic parameters of maximum blood concentration (Cmax) and Area under the blood concentration-time curve (AUC).
# The LC-MS/MS test for simultaneous detection of tazarotene and tazarotenic acid may be run as follows. One ml of plasma (EDTA-treated) is diluted with 1.0 ml of water. Diluted plasma is extracted using solid phase extraction (SPE) on a C18 cartridge. The eluate is evaporated, reconstituted in a water/methanol-based mobile phase, and injected onto a 4.6×50 mm, 3 μm pore size C-8 reverse phase high pressure liquid chromatography (HPLC) column (Agilent, Wilmington, Del.). Compounds are gradient-eluted at 1.2 mL/min and detected using an API 3000 triple quadrupole mass spectrometer with an Atmospheric Pressure Chemical Ionization (APCI) source (PE-Sciex, Concord, Ontario, Canada). […] The specific precursor-product ion pair monitored are m/z 352→324 for tazarotene, m/z […] for the tazarotene internal standard, m/z 324→294 for tazarotenic acid, and m/z 331→298 for the tazarotenic acid internal standard. The lower limit of quantitation at assay range tested is 0.1 ng/mL, with a coefficient of variation and deviation from nominal concentration of <15%.
# RXRs = test: RXR activation; type: cell-based
# From the text: (§1) The selection of a retinoid component useful in accordance with the present invention can be accomplished using straightforward, conventional testing and/or assays, such as the transactivation assays set forth in Evans et al., U.S. Pat. No. 5,217,867; 5,262,300; 5,310,662; and 5,906,920, each of which is hereby incorporated in its entirety herein by reference, which are well known in the art. Such testing and/or assays can identify suitable useful retinoid components without undue experimentation.
# In other aspects of the present invention, one or more compounds, for example, from a screening library of compounds, which are known to have or have been tested, using conventional and well known techniques, and found to have useful RAR activity, can be individually or collectively tested for RXR activity using conventional and well known testing procedures. See, for example, the above-noted Evans et al. patents, in particular U.S. Pat. No. 5,906,920.
# RARs = test: RAR activation and subtype selectivity; type: cell-based
# From the text: as §1
# Other well known and straightforward test methods and/or assays may be employed to determine the selectivity or specificity of an RAR active compound to RAR-alpha, RAR-beta and RAR-gamma. For example, using conventional and well known assays, for example, such as set forth in Klein et al. U.S. Pat. No. 5,776,699, the disclosure of which is incorporated in its entirety herein by reference, and/or the above-noted Evans et al. patents, the selectively or specificity of a compound to RAR-alpha, RAR-beta and RAR-gamma can be determined. Based on the results of such assays, one can determine whether or not a compound is useful in accordance with one or more aspects of the present invention.
# sebaceous glands = settings: severe acne; cited from earlier work
# patients = test: Two 24-week placebo-controlled safety studies of oral tazarotene plus 16- to 24-week dose-response evaluations; type: in vivo, human; settings: 4.5 mg orally once daily
# Description: Two multicenter, double-blind, randomized, placebo-controlled 24-week studies of identical design are conducted to evaluate the safety of oral tazarotene. In addition, 16- to 24-week dose-response evaluations are performed.
# In the two safety trials, the incidence of adverse side effects with a 4.5 mg dose administered orally once daily is compared to the incidence of the same side effects with a placebo. […] The majority of these were mild in severity and typical of adverse effects associated with oral retinoids.
# [3] = test system: patients with moderate to very severe plaque psoriasis; test: Open-label extension study of oral tazarotene in plaque psoriasis non-responders; type: in vivo, human; settings: 4.5 mg once daily, extension treatment period, across both groups
# Description: Two multicenter, double-blind, placebo-controlled studies ware conducted to evaluate the efficacy and safety of oral tazarotene (4.5 mg once daily) in patients with moderate to very severe plaque psoriasis. […] Efficacy evaluations include overall lesional assessment (OLA), percent body surface area involvement, global response to treatment, plaque elevation, scaling, and erythema. OLA is graded on a 6-point scale (0=none, 1=minimal, 2=mild, 3=moderate, 4=severe, 5=very severe).
# [4] = test system: patients having nodulocystic acne; test: Two placebo-controlled dose-ranging safety studies of oral tazarotene in nodulocystic acne; type: in vivo, human; settings: for Emotional lability, patients: all cases mild
# Description: Two placebo-controlled dose-ranging studies are conducted to evaluate the safety of oral tazarotene in patients having nodulocystic acne. In the first study, patients receive orally administered tazarotene at daily doses of 0.4 mg to 2.8 mg in 96 (71+25) patients (12 weeks treatment plus 12 weeks post-treatment). In the second study, daily doses of 0.75 mg to 6 mg tazarotene are administered to 181 patients (24 weeks treatment plus 12 weeks post-treatment).
# [5] = test system: patients with severe nodulocystic acne; test: Multicenter double-blind placebo-controlled study of oral tazarotene in severe nodulocystic acne; type: in vivo, human
# From the text: A multicenter, double-blind, randomized, placebo-controlled parallel-group study is undertaken to determine the efficacy of orally administered tazarotene in treating severe nodulocystic acne.
# In addition, washout periods for other medications for this study are: 1 week for vitamin A supplements >5000 IU; 2 weeks for topical anti-acne medications (e.g., retinoids, azelaic acid, benzoyl peroxide); 2 weeks for topical or systemic antibiotic therapy that may alter the course of acne; and 6 months for systemic retinoids.
# Patients are randomized to receive placebo or oral tazarotene (0.75, 1.5, 3, or 6 mg), in a 1:1:1:1:1 ratio once daily for 24 weeks. After this, the patients are followed without treatment for an additional 12 weeks. Patients discontinuing from the treatment period due to adverse effects or lack of efficacy are eligible for entry into the post-treatment phase.
# In the study, overall acne severity is rated as: none (no inflammatory acne lesions); mild (few to several papules or pustules, no nodulocystic lesions); moderate (several to many papules or pustules, few to several nodulocystic lesions); and severe (numerous or extensive papules or pustules, many, for example, at least about 5 or at least about 10, nodulocystic lesions).
# Treatment success is defined as at least moderate (about 50%) improvement on the following 7-point global response scale: • 0=completely cleared • 1=almost cleared (about 90% improvement) • 2=marked response (about 75% improvement) • 3=moderate response (about 50% improvement) • 4=slight response (about 25% improvement) • 5=condition unchanged • 6=condition worsened
# In this study, facial nodulocystic lesion count includes lesions greater than 5 mm in size. Facial papular/pustular lesion count includes lesions less than or equal to 5 mm in size. Facial non-inflammatory lesion count includes open and closed comedones.
# Sebum output is assessed every 4 weeks at selected centers using the Sebutape® patches, sold by Cuderm Corporation. Urinalysis, chemistry, and hematology values are monitored. Bone formation and resorption assessments (serum bone alkaline phosphatase and serum amino terminal telopeptides, respectively) at selected centers are monitored.
# Bone mineral density of spine and proximal femur at selected centers is monitored. Ligament calcification or osteophyte formation (lateral X-ray of the cervical and thoracic spine, and ankle calcaneous) is monitored. Epiphyseal growth plate closure (internal oblique X-ray of the ankle in patients less than or equal to 21 years old) is monitored.
# [6] = relative to tamoxifen in the absence of bexarotene; cited from earlier work
compound,measurement,setting,value
COc1cc(C)c(/C=C/C(C)=C/C=C/C(C)=C/C(=O)O)c(C)c1C [acitretin],Bioavailability in the presence of food,[1],increased in the presence of food
CC1(C)CCSc2ccc(C#Cc3ccc(C(=O)O)cn3)cc21 [tazarotenic acid],Cmax average ratio (test/reference) of tazarotenic acid,[2]; Day 0,1.00
same,Cmax average ratio (test/reference) of tazarotenic acid,[2]; Day 9,0.829
same,Activation of the RXRs,RXRs,does not activate
same,RAR subtype selectivity,RARs,selectivity for RAR-β and RAR-γ
CC1=C(/C=C/C(C)=C/C=C/C(C)=C\C(=O)O)C(C)(C)CCC1 [isotretinoin],Bioavailability in the presence of food,[1],increased in the presence of food
same,Decrease in sebum secretion rate,sebaceous glands,about 90%
CCOC(=O)c1ccc(C#Cc2ccc3c(c2)C(C)(C)CCS3)nc1 [tazarotene],"Incidence of altered hormone levels (elevated TSH and T4, decreased T4, abnormal thyroid function test)",patients,0%
same,"Incidence of hypertriglyceridemia, hypercholesterolemia, abnormal liver function tests, increased ALT, increased AST, desquamation, eye dryness, alopecia",patients; vs placebo,essentially the same incidence with oral tazarotene as with placebo
same,Incidence of arthralgia,[3],20%
same,Incidence of asthenia,[3],6%
same,Incidence of back pain,[3],11%
same,Incidence of cheilitis,[3],70%
same,Incidence of dry skin,[3],25%
same,Incidence of headache,[3],11%
same,Incidence of hypertriglyceridemia,[3],6%
same,Incidence of infection,[3],10%
same,Incidence of myalgia,[3],15%
same,Severe dry skin,[4]; 3 mg and 6 mg groups,No patient
same,"Emotional lability, patients",[4]; 3 mg group (1 patient),3%
same,"Depression, patients","[4]; 3 mg group (3 patients: 2 mild, 1 severe)",8%
same,"Emotional lability, patients",[4]; 6 mg group (5 patients),14%
same,"Changes in urinalysis, chemistry, or hematology measures (liver function tests, triglycerides, total cholesterol, HDL cholesterol)",[4]; 0.4 to 6 mg daily,no consistent dose-related clinically significant changes
same,"Ligament calcification, osteophyte formation, changes in serum bone alkaline phosphatase, serum amino terminal telopeptides, bone density",[4]; 0.4 to 6 mg daily,not associated with any clinically significant
same,Patients withdrawing from either study due to adverse events,[4]; all groups of both studies incl. placebo (7/277),2.5%
same,"Patients withdrawing due to adverse events, treatment period",[5]; 0.75 mg group (2/35),6%
same,"Patients withdrawing due to adverse events, treatment period",[5]; 1.5 mg group (0/37),0%
same,"Patients withdrawing due to adverse events, treatment period",[5]; 3 mg group (2/37),5%
same,"Patients withdrawing due to adverse events, treatment period",[5]; 6 mg group (1/36),3%
same,Reduction of overall acne severity vs placebo,"[5]; 6 mg, from week 16 until end of post-treatment phase (p ≦0.01)",significantly more than placebo
same,"Abnormalities in liver function test results or elevated triglycerides, total cholesterol, or HDL cholesterol","[5]; 0.75 to 6 mg once daily, 24 weeks",not generally associated
same,Sebum secretion (Sebutape method) relative to placebo,"[5]; 0.75 to 6 mg once daily, assessed every 4 weeks",does not substantially reduce sebum secretion
CC1(C)CC[S+]([O-])c2ccc(C#Cc3ccc(C(=O)O)cn3)cc21 (stereo not drawn) [AGN 190844],Activation of the RXRs,RXRs,does not activate
same,Activation of the RARs,RARs,does not activate
C=C(c1ccc(C(=O)O)cc1)c1cc2c(cc1C)C(C)(C)CCC2(C)C [bexarotene],Bioavailability in the presence of food,[1],increased in the presence of food
same,Plasma concentration of coadministered tamoxifen,[6],reduced plasma concentration of tamoxifen
